Test results from patent publication US7208142B2, “Indanylidene compounds” (Symrise GmbH & Co. KG, priority 2000, dated 2007).

Key:
[1] = UV absorption of the compounds (E1/1 at λmax); assay type: physicochemical
[2] = Photostability: irradiation in a Suntester, concentration decrease of the UV filters; assay type: physicochemical
Description: The values give the concentration decrease of the UV filters in percentage following irradiation (dose in J/cm^2).

[3] = formulation Example 1, 72 J/cm^2, 765 W/m^2
[4] = formulation Example 1, 144 J/cm^2, 765 W/m^2

Row | λmax [1] | SMILES | concentration decrease of the UV filter following irradiation [2, 3] | concentration decrease of the UV filter following irradiation [2, 4] | other results
1 | 340 nm | COc1c(C)cc2c(c1C)C(C)(C)C/C2=C(/C#N)C(=O)C(C)(C)C [Example 2, 2-(5-Methoxy-3,3,4,6-tetramethyl-1-indanylidene)-4,4-dimethyl-3-oxo-pentanonitrile] |  |  | 
2 | 342 nm | Cc1cc2c(cc1C)C(C)(C)C/C2=C(/C#N)C(=O)C(C)(C)C [Example 3, 2-(3,3,5,6-tetramethyl-1-indanylidene)-4,4-dimethyl-3-oxo-pentanonitrile] |  |  | 
3 | 335/316 | Cc1ccc2c(c1)/C(=C(\C#N)C(=O)C(C)(C)C)CC2(C)C [Example 4, 2-(3,3,6-trimethyl-1-indanylidene)-4,4-dimethyl-3-oxo-pentanonitrile] |  |  | E1/1 (specific extinction at λmax) [1]: 588/550
4 |  | CCCOC(=O)/C(C#N)=C1\CC(C)(C)c2cc(OC)c(OC)cc21 [Example A1] | 10% | 13% | concentration decrease of the UV filter following irradiation ([2]; combination A1 + OMC, formulation Example 12, 72 J/cm^2): 22%; concentration decrease of the UV filter following irradiation ([2]; combination A1 + OMC, formulation Example 12, 144 J/cm^2): 37%
5 |  | COC(=O)/C(C#N)=C1\CC(C)(C)c2cc(OC)c(OCC(C)C[Si](C)(O[Si](C)(C)C)O[Si](C)(C)C)cc21 (stereo not shown) [Example A2] | 1% | 6% | concentration decrease of the UV filter following irradiation ([2]; combination A2 + OMC, formulation Example 12, 72 J/cm^2): 14%; concentration decrease of the UV filter following irradiation ([2]; combination A2 + OMC, formulation Example 12, 144 J/cm^2): 26%
6 |  | COc1cc2c(cc1OC)C(C)(C)C/C2=C(/C#N)C(=O)C(C)(C)C [Example B1] | 2% | 3% | concentration decrease of the UV filter following irradiation ([2]; combination B1 + OMC, formulation Example 12, 72 J/cm^2): 2%; concentration decrease of the UV filter following irradiation ([2]; combination B1 + OMC, formulation Example 12, 144 J/cm^2): 3%

Row | SMILES | λmax [1] | concentration decrease of the UV filter following irradiation [2, 3] | concentration decrease of the UV filter following irradiation [2, 4] | other results
7 | COc1cc2c(cc1OC)C(C)(C)C/C2=C(/C#N)C(=O)C(C)(C)C [Example 1, 2-(5,6-Dimethoxy-3,3-dimethyl-1-indanylidene)-4,4-dimethyl-3-oxo-pentanonitrile] | 373 nm |  |  | 
8 | COc1cc2c(cc1OC(C)=O)/C(=C(\C#N)C(=O)C(C)(C)C)CC2(C)C [Example 8, 2-(6-Acetoxy-3,3-dimethyl-5-methoxy-1-indanylidene)-4,4-dimethyl-3-oxo-pentanonitrile] | 355/302 |  |  | E1/1 (specific extinction at λmax) [1]: 420/280
